Source: paper PMC6151695, “Novel Selective Estrogen Receptor Ligand Conjugates Incorporating Endoxifen-Combretastatin and Cyclofenil-Combretastatin Hybrid Scaffolds: Synthesis and Biochemical Evaluation” (Molecules : A Journal of Synthetic Chemistry and Natural …, 2017)
Several values for one entry are separate records, joined by “and”; a condition that tells them apart may be missing. Equal entries are not always repeated. Entries after “also recorded” stand apart in the source; their conditions may differ. Where two headings read alike, the source gives them in different places.

Columns and labels:
[1] = test system: MCF-7 human breast cancer cell line; assay: Alamar Blue assay for antiproliferative effects; assay type: cell-based; details: for IC50: read-out: IC50 (μM), antiproliferative effects
[2] = test system: MCF-7 cells; assay: Flow cytometry (propidium iodide) cell cycle and apoptosis analysis in MCF-7; assay type: cell-based, human; details: MCF-7, 10 µM, 72 h
Procedure: Flow cytometry with propidium iodide stained cells was carried out to analyse the percentage of cells in each stage of the cell cycle and the number of apoptotic or dead cells. Samples were treated for 72 h at 10 µM. […] […].
MCF-7 cells were seeded at a density of 5 × 10^4 cells/well in a 12-well plate and treated with the indicated compounds for 72 h. Samples were then centrifuged at 650× g for 5 min and resuspended in 100 µL ice-cold PBS. Ice-cold 70% (v/v) ethanol (1 mL) was then added to fix the samples overnight at 4 °C. Samples were subsequently centrifuged at 800× g for 10 min and resuspended in 200 µL PBS. RNase A (12.5 µL of 10 mg/mL) and propidium iodide (37.5 µL of 1 mg/ mL) were added to samples which were then incubated for 30 min at 37°C. Cell cycle analysis was performed at 488 nm using a FACS Calibur flow cytometer (Becton Dickinson, Franklin Lakes, NJ, USA). The Macintosh-based application CellQuest was then used to analyse the data of 10,000 gated cells once cell debris had been excluded. Data points represent the mean ± S.E.M. of three independent experiments.

[3] = Homo sapiens, MCF7, 72 h, MCF-7, 72 h, Alamar Blue
[4] = Homo sapiens, MCF7, read-out: growth inhibition
[5] = Homo sapiens, MCF7, MCF-7, at 1 μM, read-out: growth inhibition

Row | IC50 [1, 3] [µM] | SMILES | also measured
1 | > 50 | CCC(=C(c1ccc(O)cc1)c1ccc(OCCN(C)C(=O)/C(=C/c2cccc(O)c2)c2cc(OC)c(OC)c(OC)c2)cc1)c1ccccc1 (mixture of isomers) [Compound 3f, (E/Z)-3-(3-Hydroxyphenyl)-N-(2-(4-((Z)-1-(4-hydroxyphenyl)-2-phenylbut-1-en-1-yl)phenoxy)ethyl)-N-methyl-2-(3,4,5-trimethoxyphenyl)acrylamide] | –
2 | 2.01 | COc1ccc(/C=C(/C(=O)N(C)CCOc2ccc(C(=C3CCCCC3)c3ccc(O)cc3)cc2)c2cc(OC)c(OC)c(OC)c2)cc1O [Compound 13b, (E)-N-(2-(4-(Cyclohexaneylidene(4-hydroxyphenyl)methyl)phenoxy)ethyl)-3-(3-hydroxy-4-methoxyphenyl)-N-methyl-2-(3,4,5-trimethoxyphenyl)acrylamide] | –
3 | > 50 | CCC(=C(c1ccc(O)cc1)c1ccc(OCCN(C)C(=O)/C(=C/c2cc(OC)c(OC)c(OC)c2)c2cc(OC)c(OC)c(OC)c2)cc1)c1ccccc1 (mixture of isomers) [Compound 3c, (E/Z)-N-(2-(4-((Z)-1-(4-Hydroxyphenyl)-2-phenylbut-1-en-1-yl)phenoxy)ethyl)-N-methyl-2,3-bis(3,4,5-trimethoxyphenyl)acrylamide] | –
4 | > 50 | CCC(=C(c1ccc(O)cc1)c1ccc(OCCN(C)C(=O)/C(=C/c2cc(OC)c(OC)c(OC)c2)c2cc(OC)cc(OC)c2)cc1)c1ccccc1 (mixture of isomers) [Compound 3b, (E/Z)-2-(3,5-Dimethoxyphenyl)-N-(2-(4-((Z)-1-(4-hydroxyphenyl)-2-phenylbut-1-en-1-yl)phenoxy)ethyl)-N-methyl-3-(3,4,5-trimethoxyphenyl)acrylamide] | –
5 | > 50 | CCC(=C(c1ccc(O)cc1)c1ccc(OCCN(C)C(=O)/C(=C/c2ccc(OC)c(OC)c2OC)c2cc(OC)c(OC)c(OC)c2)cc1)c1ccccc1 (mixture of isomers) [Compound 3h, (E/Z)-N-(2-(4-((Z)-1-(4-Hydroxyphenyl)-2-phenylbut-1-en-1-yl)phenoxy)ethyl)-N-methyl-3-(2,3,4-tri-methoxyphenyl)-2-(3,4,5-trimethoxyphenyl)acrylamide] | –
6 | > 50 | CCC(=C(c1ccc(O)cc1)c1ccc(OCCN(C)C(=O)/C(=C/c2ccc(O)c(O)c2)c2cc(OC)c(OC)c(OC)c2)cc1)c1ccccc1 (mixture of isomers) [Compound 3e, (E/Z)-3-(3,4-Dihydroxyphenyl)-N-(2-(4-((Z)-1-(4-hydroxyphenyl)-2-phenylbut-1-en-1-yl)phenoxy)ethyl)-N-methyl-2-(3,4,5-trimethoxyphenyl)acrylamide] | –
7 | 2.5 | COc1ccc(/C=C(/C(=O)N(C)CCOc2ccc(C(=C3CCCCCC3)c3ccc(O)cc3)cc2)c2cc(OC)c(OC)c(OC)c2)cc1O [Compound 13c, (E)-N-(2-(4-(Cycloheptylidene(4-hydroxyphenyl)methyl)phenoxy)ethyl)-3-(3-hydroxy-4-methoxyphenyl)-N-methyl-2-(3,4,5-trimethoxyphenyl)acrylamide] | apoptosis [2]: 20%
8 | 11.8 | CCC(=C(c1ccc(O)cc1)c1ccc(OCCN(C)C(=O)/C(=C/c2cc(OC)c(O)c(OC)c2)c2cc(OC)c(OC)c(OC)c2)cc1)c1ccccc1 (mixture of isomers) [Compound 3j, (E/Z)-3-(4-Hydroxy-3,5-dimethoxyphenyl)-N-(2-(4-((Z)-1-(4-hydroxyphenyl)-2-phenylbut-1-en-1-yl)-phenoxy)ethyl)-N-methyl-2-(3,4,5-trimethoxyphenyl)acrylamide] | IC50 ([1]; MCF-7, 72 h, Alamar Blue): 11.8 µM
9 | > 100 | CCC(=C(c1ccc(O)cc1)c1ccc(OCCN(C)C(=O)CCc2cc(OC)c(OC)c(OC)c2)cc1)c1ccccc1 (mixture of isomers) [Compound 5d, N-(2-(4-((E/Z)-1-(4-Hydroxyphenyl)-2-phenylbut-1-enyl)phenoxy)ethyl)-3-(3,4,5-trimethoxyphenyl)-N-methylpropanamide] | IC50 ([1]; MCF-7, 72 h, Alamar Blue): > 50 µM
10 | > 50 | CCC(=C(c1ccc(O)cc1)c1ccc(OCCN(C)C(=O)/C(=C/c2ccc(OC)c(OC)c2)c2cc(OC)c(OC)c(OC)c2)cc1)c1ccccc1 (mixture of isomers) [Compound 3g, (E/Z)-3-(3,4-Dimethoxyphenyl)-N-(2-(4-((Z)-1-(4-hydroxyphenyl)-2-phenylbut-1-en-1-yl)phenoxy)ethyl)-N-methyl-2-(3,4,5-trimethoxyphenyl)acrylamide] | –
11 | > 50 | CCC(=C(c1ccc(O)cc1)c1ccc(OCCN(C)C(=O)/C(=C/c2ccc(OC)c(O)c2)c2cc(OC)cc(OC)c2)cc1)c1ccccc1 (mixture of isomers) [Compound 3d, (E/Z)-2-(3,5-Dimethoxyphenyl)-3-(3-hydroxy-4-methoxyphenyl)-N-(2-(4-((Z)-1-(4-hydroxyphenyl)-2-phenylbut-1-en-1-yl)phenoxy)ethyl)-N-methylacrylamide] | –
12 | > 50 | CCC(=C(c1ccc(O)cc1)c1ccc(OCCN(C)C(=O)/C(=C/c2ccc(C)s2)c2cc(OC)c(OC)c(OC)c2)cc1)c1ccccc1 (mixture of isomers) [Compound 3l, (E/Z)-N-(2-(4-((E)-1-(4-Hydroxyphenyl)-2-phenylbut-1-en-1-yl)phenoxy)ethyl)-N-methyl-3-(5-methyl-thiophen-2-yl)-2-(3,4,5-trimethoxyphenyl)acrylamide] | –
13 | > 100 | CCC(=C(c1ccc(O)cc1)c1ccc(OCCN(C)C(=O)/C=C/c2cc(OC)c(OC)c(OC)c2)cc1)c1ccccc1 (mixture of isomers) [Compound 5c, (E/Z)-N-(2-(4-((Z)-1-(4-Hydroxyphenyl)-2-phenylbut-1-en-1-yl)phenoxy)ethyl)-N-methyl-3-(3,4,5-tri-methoxyphenyl)acrylamide] | IC50 ([1]; MCF-7, 72 h, Alamar Blue): > 50 µM

Continued, compound first:

Row | SMILES | IC50 [1, 3] [µM] | also measured
14 | CNCCOc1ccc(C(=C2CCCCC2)c2ccc(O)cc2)cc1 [Compound 11b, 4-(Cyclohexaneylidene(4-(2-(methylamino)ethoxy)phenyl)methyl)phenol] | 4.78 | –
15 | CCN(CC)C(=O)/C(=C/c1ccc(OC)c(O)c1)c1cc(OC)c(OC)c(OC)c1 [Compound 3o, (E)-N,N-diethyl-3-(3-hydroxy-4-methoxyphenyl)-2-(3,4,5-trimethoxyphenyl) acrylamide] | – | inhibition at 1 µM [1, 4]: 16%
16 | CCC(=C(c1ccc(O)cc1)c1ccc(OCCN(C)C(=O)CCc2ccc(OC)c(O)c2)cc1)c1ccccc1 (mixture of isomers) [Compound 5b, (E/Z)-3-(3-hydroxy-4-methoxyphenyl)-N-(2-(4-(1-(4-hydroxyphenyl)-2-phenylbut-1-en-1-yl)phenoxy)ethyl)-N-methylpropanamide] | – | IC50 ([1]; MCF-7, 72 h, Alamar Blue): 46.7 µM and 46.8 µM
17 | CC/C(=C(\c1ccc(O)cc1)c1ccc(OCCN(C)C(=O)C=Cc2ccc(OC)c(O)c2)cc1)c1ccccc1 (mixture of isomers) [Compound 5a, (E/Z)-3-(3-Hydroxy-4-methoxyphenyl)-N-(2-(4-((Z)-1-(4-hydroxyphenyl)-2-phenylbut-1-en-1-yl)phenoxy)-ethyl)-N-methylacrylamide] | – | IC50 ([1]; MCF-7, 72 h, Alamar Blue): 51.3 µM
18 | CCN(CC)C(=O)/C(=C/c1ccc(OC)cc1)c1cc(OC)c(OC)c(OC)c1 [Compound 3q, (E)-N,N-Diethyl-3-(4-methoxyphenyl)-2-(3,4,5-trimethoxyphenyl)acrylamide] | – | inhibition at 1 µM [1, 5]: 25%
19 | CCC(=C(c1ccc(O)cc1)c1ccc(OCCN(C)C(=O)/C(=C/c2ccc(OC)c([N+](=O)[O-])c2)c2cc(OC)c(OC)c(OC)c2)cc1)c1ccccc1 (mixture of isomers) [Compound 3a, (E/Z)-N-(2-(4-((E)-1-(4-Hydroxyphenyl)-2-phenylbut-1-en-1-yl)phenoxy)ethyl)-3-(4-methoxy-3-nitro-phenyl)-N-methyl-2-(3,4,5-trimethoxyphenyl)acrylamide] | – | IC50 ([1]; Homo sapiens, MCF7, 72 h): > 50 µM
20 | CCC(=C(c1ccccc1)c1ccc(OCCN(C)C(=O)CCC(=O)O)cc1)c1ccccc1 [Compound 14a, N-{2-[4-(1,2-Diphenylbut-1-enyl)phenoxy]ethyl}-N-methylsuccinamic acid] | > 50 | antiproliferative activity (in words) ([1]; MCF-7): very low antiproliferative activity; also recorded: no significant antiproliferative activity
21 | COc1ccc(/C(=C\c2cc(OC)c(OC)c(OC)c2)C(N)=O)cc1 [Compound 3n, (E)-2-(4-Methoxyphenyl)-3-(3,4,5-trimethoxyphenyl)acrylamide] | – | inhibition at 1 µM [1, 4]: 20%
22 | COc1ccc(/C=C(/C(N)=O)c2cc(OC)c(OC)c(OC)c2)cc1 [Compound 3p, (E)-3-(4-Methoxyphenyl)-2-(3,4,5-trimethoxyphenyl)acrylamide] | – | inhibition at 1 µM [1, 5]: 60%
23 | CNCCOc1ccc(C(=C2CCCC2)c2ccc(O)cc2)cc1 [Compound 11a, 4-(Cyclopentylidene(4-(2-(methylamino)ethoxy)phenyl)methyl)phenol] | 3.09 | –
24 | COc1ccc(/C=C(/C(=O)N(C)CCOc2ccc(C(=C3CCCC3)c3ccc(O)cc3)cc2)c2cc(OC)c(OC)c(OC)c2)cc1O [Compound 13a, (E)-N-(2-(4-(Cyclopentylidene(4-hydroxyphenyl)methyl)phenoxy)ethyl)-3-(3-hydroxy-4-methoxyphenyl)-N-methyl-2-(3,4,5-trimethoxyphenyl)acrylamide] | – | IC50 ([1]; Homo sapiens, MCF7, 72 h): 1.38 µM
